Values quoted from earlier work as cited in patent US9289495B2, “Systems and methods for treatment of allergies and other indications” (Strategic Science & Technologies, LLC, priority 2011, dated 2016).

CN(C)CCOC(C)(c1ccccc1)c1ccccn1 (stereo not shown) [doxylamine]
pKa: 8.7-9.2
